Measurements from patent US8242167B2, “Mannose derivatives for killing tumor cells” (University of Miami, priority 2006, dated 2012).

Assays:
[1] = system: S-1 & S-2, non-small cell lung cancer; assay: Cytotoxicity under normoxia, NSCLC; format: cell-based, human; conditions: normoxic conditions
Protocol: (§1) Cell types. The Δ^0 cells were isolated by treating osteosarcoma cell line 143B (wt) with ethidium bromide for prolonged periods, as previously described (9). Because the Δ^0 cells are uridine and pyruvate auxotrophs, they were grown in DMEM (GIBCO, USA) supplemented with 10% fetal calf serum, 50 μg/ml of uridine and 100 mM sodium pyruvate. The SKBR3 cell line was obtained from Dr. Joseph Rosenblatt's laboratory at the University of Miami. The pancreatic cancer cell lines 1420 and 1469, the ovarian cancer cell line SKOV3, the cervical cancer cell line HELA, and the osteosarcoma cell line 143B were purchased from ATCC. The non-small cell lung cancer and small cell lung cancer cell lines were derived from patients by Dr. Niramol Savaraj at the University of Miami. SKBR3 and SKOV3 cells were grown in McCoy's 5A medium; 1420, 1469 and 143B were grown in DMEM (GIBCO, USA); and HELA was grown in MEM (GIBCO, USA). The media was supplemented with 10% fetal bovine serum. All cells were grown under 5% CO2 and 37° C. Cytotoxicity assay. Cells were incubated for 24 hr at 37° C. in 5% CO2 at which time drug treatments began and continued for 72 hr. […] The pellets were resuspended in 1 ml of Hanks solution and analyzed by Vi-Cell (Beckman Coulter, USA) cell viability analyzer.

CHOP/GADD154 = assay: Western blot of CHOP/GADD154 in SKBR3 cells; format: cell-based, human; conditions: SKBR3, normoxia, 24 hrs; 8 mM sugar analog
Protocol: (§2) Western Blot analysis. Cells were plated at 10^4 cell cm^−2 and grown under drug treatment for the indicated times. At the end of the treatment period, cells were collected and lysed with 1% SDS in 80 mM Tris-HCL (ph 7.4) buffer supplemented with a proteinase inhibitor cocktail. DNA was fragmented by sonication and protein concentrations were measured by microBCA protein assay kit (Pierce, USA). Samples were mixed with 2× Laemmli sample buffer (Bio-Rad, USA) and run on a SDS-polyacrylamide gel. Gels were transferred to nitrocellulose membranes (Amersham, USA) and probed with anti-KDEL (Stressgen, Canada) (for Grp78 and Grp94); polyclonal anti-CHOP/[…] (Santa Cruz, USA), polyclonal anti-erbB2 (DAKO, USA). Following probing, membranes were washed and incubated with an HRP conjugated secondary antibody. Chemiluminesence was detected by exposure to film. Where indicated, membranes were stripped with Stripping Buffer (Pierce, USA) and reprobed with anti-actin (Sigma, USA) primary antibody. To analyze conconavalin A (ConA) binding, the membranes were incubated with 0.2 μg/ml HRP-conjugated ConA, and chemiluminescence was detected as described.

erbB2 = assay: Western blot of erbB2 in SKBR3 cells; format: cell-based, human
Protocol: as §2

HELA, cervical cancer = assay: Cytotoxicity under normoxia, HELA; format: cell-based; conditions: column head gives the result: sensitive
Protocol: as §1

MCF-7, breast cancer = assay: Cytotoxicity under normoxia, MCF-7; format: cell-based; conditions: column head gives the result: resistant
Protocol: (§3) Cytotoxicity assay. Cells were incubated for 24 hr at 37° C. in 5% CO2 at which time drug treatments began and continued for 72 hr. At this time, attached cells were trypsinized and combined with their respective culture media followed by centrifugation at 400 g for 5 min. The pellets were resuspended in 1 ml of Hanks solution and analyzed by Vi-Cell (Beckman Coulter, USA) cell viability analyzer.

Grp78 and Grp94 [2] = assay: Western blot of Grp78 and Grp94 (unfolded protein response) in SKBR3 cells under normoxia; format: cell-based, human
Protocol: as §2

Grp78 and Grp94 [3] = assay: Western blot of Grp78 and Grp94 in models of hypoxia A, B & C; format: cell-based
Protocol: as §2
Three in vitro models of hypoxia. We previously characterized three models of anaerobiosis as follows: Model A are tumor cells treated with 0.05 μg/ml of oligomycin (a mitochondrial inhibitor of ATP synthase); Model B are cells that are deficient in mitochondrial DNA and Model C are cells treated in an hypoxic (0.5% O^2) chamber (Reming Bioinstruments, Redfield, N.Y.).

143B, osteosarcoma = assay: Cytotoxicity under normoxia, 143B; format: cell-based, human; conditions: column head gives the result: resistant
Protocol: as §1

[4] = system: TG98, brain cancer (glioblastoma); assay: Cytotoxicity under normoxia, TG98; format: cell-based; conditions: column head gives the result: sensitive
Protocol: as §3

[5] = system: MDA-MB-231, breast cancer; assay: Cytotoxicity under normoxia, MDA-MB-231; format: cell-based; conditions: column head gives the result: resistant
Protocol: as §3

HEPA-1 = assay: Cytotoxicity under normoxia, HEPA-1; format: cell-based, rat; conditions: column head gives the result: resistant
Protocol: as §3

fowl plague virus = conditions: chick embryo fibroblasts infected with fowl plague virus; cited from earlier work
human tumor xenografts = conditions: different human tumor xenografts; cited from earlier work
1469, pancreatic cancer = assay: Cytotoxicity under normoxia, 1469; format: cell-based; conditions: column head gives the result: resistant
Protocol: as §1

1420, pancreatic cancer = assay: Cytotoxicity under normoxia, 1420; format: cell-based, human; conditions: column head gives the result: sensitive
Protocol: (§4) Cell types. The Δ^0 cells were isolated by treating osteosarcoma cell line 143B (wt) with ethidium bromide for prolonged periods, as previously described (9). Because the Δ^0 cells are uridine and pyruvate auxotrophs, they were grown in DMEM (GIBCO, USA) supplemented with 10% fetal calf serum, 50 μg/ml of uridine and 100 mM sodium pyruvate. The SKBR3 cell line was obtained from Dr. Joseph Rosenblatt's laboratory at the University of Miami. The pancreatic cancer cell lines 1420 and 1469, the ovarian cancer cell line SKOV3, the cervical cancer cell line HELA, and the osteosarcoma cell line 143B were purchased from ATCC. The non-small cell lung cancer and small cell lung cancer cell lines were derived from patients by Dr. Niramol Savaraj at the University of Miami. SKBR3 and SKOV3 cells were grown in McCoy's 5A medium; 1420, 1469 and 143B were grown in DMEM (GIBCO, USA); and HELA was grown in MEM (GIBCO, USA). The media was supplemented with 10% fetal bovine serum. All cells were grown under 5% CO2 and 37° C.
as §3

[6] = animal studies and preliminary Phase I results; cited from earlier work
tumor cell lines = assay: Toxicity survey of tumor cell lines under normoxic conditions; format: cell-based
Protocol: as §4, §3

[7] = system: MDA-MB-468, breast cancer; assay: Cytotoxicity under normoxia, MDA-MB-468; format: cell-based; conditions: column head gives the result: resistant
Protocol: as §3

[8] = system: glycoproteins (ConA binding) in SKBR3 cells; assay: HRP-conjugated ConA blot of SKBR3 cell extracts; format: cell-based, human; conditions: SKBR3, 48 hr, 8 mM sugar analog
Protocol: as §2

SKOV3, ovarian cancer = assay: Cytotoxicity under normoxia, SKOV3; format: cell-based; conditions: column head gives the result: resistant
Protocol: as §1

SKBR3 cells = assay: Growth inhibitory and cytotoxicity assay in SKBR3 cells under normoxia; format: cell-based, human
Protocol: Cytotoxicity assay and Rapid DNA Content Analysis. Cells were incubated for 24 hr at 37° C. in 5% CO2 at which time drug treatments began and were continued for 72 hr. At this time, attached cells were trypsinized and combined with their respective culture media followed by centrifugation at 400 g for 5 min. Pellets containing the cells were either resuspended in 1.5 ml of a medium/trypan blue mixture for cytotoxicity assays or propidium iodide/hypotonic citrate staining solution for determining the nuclear DNA content and cell cycle by a Coulter XL flow cytometer. A minimum of 10,000 cells were analyzed to generate a DNA distribution histogram.
as §3

O=CC[C@@H](O)[C@H](O)[C@H](O)CO [2-DG, 2-deoxy-D-glucose]
toxicity to NSCLC [1]: toxic
induction of GADD154/CHOP (CHOP/GADD154): induced
molecular weight of erbB2 (erbB2): decreased the molecular weight of erbB2
2-DG Sensitive Cell Lines (2-DG under normoxia) (HELA, cervical cancer): HELA, cervical cancer
2-DG Resistant Cell Lines (2-DG under normoxia) (MCF-7, breast cancer): MCF-7, breast cancer
expression of chaperones Grp78 and Grp94 (Grp78 and Grp94 [2]; SKBR3, normoxia, 24 hrs, 8 mM sugar analog, tunicamycin 1 micro g/ml): both Grp78 and Grp94 are upregulated
up-regulation of GRP 78 and 94, dose dependence (Grp78 and Grp94 [2]; select tumor cells, normoxic conditions): up-regulated by 2-DG and 2-FM in a dose-dependent manner
upregulation of the UPR (Grp78, Grp94) (Grp78 and Grp94 [3]; hypoxia model C): both chaperones are upregulated
upregulation of the UPR (Grp78, Grp94) (Grp78 and Grp94 [3]; hypoxia models A and B): no significant upregulation of the UPR
2-DG Resistant Cell Lines (2-DG under normoxia) (143B, osteosarcoma): 143B, osteosarcoma
2-DG Sensitive Cell Lines (2-DG under normoxia) [4]: TG98, brain cancer (glioblastoma)
2-DG Resistant Cell Lines (2-DG under normoxia) [5]: MDA-MB-231, breast cancer
2-DG Resistant Cell Lines (2-DG under normoxia) (HEPA-1): HEPA-1, rat hepatoma
order of potency to inhibit viral glycoprotein synthesis (fowl plague virus): 2-DG>2-FDM>2-FDG
effect on efficacy of standard chemotherapeutic agents (human tumor xenografts): increases the efficacy of standard chemotherapeutic agents
2-DG Resistant Cell Lines (2-DG under normoxia) (1469, pancreatic cancer): 1469, pancreatic cancer
2-DG Sensitive Cell Lines (2-DG under normoxia) (1420, pancreatic cancer): 1420, pancreatic cancer
tolerability [6]: well-tolerated and relatively non-toxic to normal cells
tumor cell lines undergoing significant cell death (tumor cell lines; 6 mM, normal oxygen tension): 6 out of 15
dose at which a select number of tumor cell lines are killed (tumor cell lines; normal oxygen tension): 4 mM
toxicity to select tumor cell types (tumor cell lines; normoxia): toxic to select tumor cell types growing under normoxia
2-DG Resistant Cell Lines (2-DG under normoxia) [7]: MDA-MB-468, breast cancer
ConA binding of glycoproteins [8]: decrease ConA binding
2-DG Resistant Cell Lines (2-DG under normoxia) (SKOV3, ovarian cancer): SKOV3, ovarian cancer
cells killed (SKBR3 cells; SKBR3, 12 mM, 72 hrs, normoxic conditions): 60%
cytotoxicity measured by trypan blue exclusion (SKBR3 cells; SKBR3, 72 hrs, normal oxygen conditions): toxic
2-DG Sensitive Cell Lines (2-DG under normoxia) (SKBR3 cells; column head gives the result: sensitive): SKBR3, breast cancer
rank order in growth inhibiting and killing SKBR3 cells (SKBR3 cells; normoxia): 2-DG>2-FDM>>>2-FDG
